# Laboratory results published in ChEMBL document CHEMBL1156482, “Molecular mechanism of action of monocyclam versus bicyclam non-peptide antagonists in the CXCR4 chemokine receptor” (J Biol Chem, 2007).
# Active and inactive are the calls of the source. No cut-off for these calls is given here.
# What was measured:
# [1] = tested on: Human immunodeficiency virus 1; assay: Antiviral activity against HIV1 clinical isolate 10 infected in U87.CD4 cells expressing human CXCR4 D171ND262N mutant; assay type: functional, organism-based; details: Human immunodeficiency virus 1, U87.CD4
# [2] = tested on: C-X-C chemokine receptor type 4 (Homo sapiens), P61073 [H113A]; assay: (§1) Displacement of [125I]12G5 antibody from transmembrane domain 3 of human CXCR4 H113A mutant expressed in COS7 cells; assay type: cell-based; details: COS-7
# [3] = target: C-X-C chemokine receptor type 4 (Homo sapiens, UniProt P61073, H113A); assay: as §1; assay type: cell-based, COS-7
# [4] = tested on: C-X-C chemokine receptor type 4 (Homo sapiens), P61073 [F172A]; assay: (§2) Displacement of [125I]12G5 antibody from transmembrane domain 4 of human CXCR4 F172A mutant expressed in COS7 cells; assay type: cell-based; details: COS-7
# [5] = target: C-X-C chemokine receptor type 4 (Homo sapiens, UniProt P61073, F172A); assay: as §2; assay type: cell-based, COS-7
# [6] = tested on: C-X-C chemokine receptor type 4 (Homo sapiens), P61073 [N176A]; assay: (§3) Displacement of [125I]12G5 antibody from extracellular loop 2 of human CXCR4 N176A mutant expressed in COS7 cells; assay type: cell-based; details: COS-7
# [7] = target: C-X-C chemokine receptor type 4 (Homo sapiens, UniProt P61073, N176A); assay: as §3; assay type: cell-based, COS-7
# [8] = tested on: C-X-C chemokine receptor type 4 (Homo sapiens), P61073 [D182A]; assay: (§4) Displacement of [125I]12G5 antibody from extracellular loop 2 of human CXCR4 D182A mutant expressed in COS7 cells; assay type: cell-based; details: COS-7
# [9] = target: C-X-C chemokine receptor type 4 (Homo sapiens, UniProt P61073, D182A); assay: as §4; assay type: cell-based, COS-7
# [10] = tested on: C-X-C chemokine receptor type 4 (Homo sapiens), P61073 [V196A]; assay: (§5) Displacement of [125I]12G5 antibody from transmembrane domain 5 of human CXCR4 V196A mutant expressed in COS7 cells; assay type: cell-based; details: COS-7
# [11] = target: C-X-C chemokine receptor type 4 (Homo sapiens, UniProt P61073, V196A); assay: as §5; assay type: cell-based, COS-7
# [12] = tested on: C-X-C chemokine receptor type 4 (Homo sapiens), P61073 [G207F]; assay: (§6) Displacement of [125I]12G5 antibody from transmembrane domain 5 of human CXCR4 G207F mutant expressed in COS7 cells; assay type: cell-based; details: COS-7
# [13] = target: C-X-C chemokine receptor type 4 (Homo sapiens, UniProt P61073, G207F); assay: as §6; assay type: cell-based, COS-7
# [14] = tested on: C-X-C chemokine receptor type 4 (Homo sapiens), P61073 [Y255A]; assay: (§7) Displacement of [125I]12G5 antibody from transmembrane domain 6 of human CXCR4 Y255A mutant expressed in COS7 cells; assay type: cell-based; details: COS-7
# [15] = target: C-X-C chemokine receptor type 4 (Homo sapiens, UniProt P61073, Y255A); assay: as §7; assay type: cell-based, COS-7
# [16] = tested on: C-X-C chemokine receptor type 4 (Homo sapiens), P61073 [D262N]; assay: (§8) Displacement of [125I]12G5 antibody from transmembrane domain 6 of human CXCR4 D262N mutant expressed in COS7 cells; assay type: cell-based; details: COS-7
# [17] = target: C-X-C chemokine receptor type 4 (Homo sapiens, UniProt P61073, D262N); assay: as §8; assay type: cell-based, COS-7
# [18] = tested on: C-X-C chemokine receptor type 4 (Homo sapiens), P61073 [I284A]; assay: (§9) Displacement of [125I]12G5 antibody from transmembrane domain 7 of human CXCR4 I284A mutant expressed in COS7 cells; assay type: cell-based; details: COS-7
# [19] = target: T1, C-X-C chemokine receptor type 4 (Homo sapiens, UniProt P61073, I284A); assay: as §9; assay type: cell-based, COS-7
# [20] = tested on: C-X-C chemokine receptor type 4 (Homo sapiens), P61073 [I259W]; assay: (§10) Displacement of [125I]12G5 antibody from transmembrane domain 6 of human CXCR4 I259W mutant expressed in COS7 cells; assay type: cell-based; details: COS-7
# [21] = target: C-X-C chemokine receptor type 4 (Homo sapiens, UniProt P61073, I259W); assay: as §10; assay type: cell-based, COS-7
# [22] = tested on: C-X-C chemokine receptor type 4 (Homo sapiens), P61073 [E288A]; assay: (§11) Displacement of [125I]12G5 antibody from transmembrane domain 7 of human CXCR4 E288A mutant expressed in COS7 cells; assay type: cell-based; details: COS-7
# [23] = target: C-X-C chemokine receptor type 4 (Homo sapiens, UniProt P61073, E288A); assay: as §11; assay type: cell-based, COS-7
# [24] = target: C-X-C chemokine receptor type 4 (Homo sapiens, UniProt P61073); assay: Antagonist activity at human wild type CXCR4 expressed in COS7 cells coexpressing G protein Gqi4myr assessed as inhibition of CXCL12-induced phosphatidylinositol turnover; assay type: functional, cell-based, COS-7
# [25] = tested on: C-X-C chemokine receptor type 4 (Homo sapiens), P61073 [D171N]; assay: (§12) Antagonist activity at human CXCR4 D171N mutant expressed in COS7 cells coexpressing G protein Gqi4myr assessed as inhibition of CXCL12-induced phosphatidylinositol turnover; assay type: functional, cell-based; details: COS-7
# [26] = target: C-X-C chemokine receptor type 4 (Homo sapiens, UniProt P61073, D171N); assay: as §12; assay type: functional, cell-based, COS-7
# [27] = tested on: C-X-C chemokine receptor type 4 (Homo sapiens), P61073 [Q200A]; assay: Antagonist activity at human CXCR4 Q200A mutant expressed in COS7 cells coexpressing G protein Gqi4myr assessed as inhibition of CXCL12-induced phosphatidylinositol turnover; assay type: functional, cell-based; details: COS-7
# [28] = tested on: C-X-C chemokine receptor type 4 (Homo sapiens), P61073 [H203A]; assay: (§13) Antagonist activity at human CXCR4 H203A mutant expressed in COS7 cells coexpressing G protein Gqi4myr assessed as inhibition of CXCL12-induced phosphatidylinositol turnover; assay type: functional, cell-based; details: COS-7
# [29] = target: C-X-C chemokine receptor type 4 (Homo sapiens, UniProt P61073, H203A); assay: as §13; assay type: functional, cell-based, COS-7
# [30] = tested on: C-X-C chemokine receptor type 4 (Homo sapiens), P61073 [H281A]; assay: (§14) Antagonist activity at human CXCR4 H281A mutant expressed in COS7 cells coexpressing G protein Gqi4myr assessed as inhibition of CXCL12-induced phosphatidylinositol turnover; assay type: functional, cell-based; details: COS-7
# [31] = target: C-X-C chemokine receptor type 4 (Homo sapiens, UniProt P61073, H281A); assay: as §14; assay type: functional, cell-based, COS-7
# [32] = tested on: C-X-C chemokine receptor type 4 (Homo sapiens), P61073 [I284A]; assay: (§15) Antagonist activity at human CXCR4 I284A mutant expressed in COS7 cells coexpressing G protein Gqi4myr assessed as inhibition of CXCL12-induced phosphatidylinositol turnover; assay type: functional, cell-based; details: COS-7
# [33] = target: T1, C-X-C chemokine receptor type 4; assay: as §15; assay type: functional, cell-based, COS-7
# [34] = tested on: C-X-C chemokine receptor type 4 (Homo sapiens), P61073 [H281A]; assay: Antagonist activity at human CXCR4 H281A mutant expressed in U87.CD4 cells assessed as inhibition of CXCL12-induced calcium mobilization; assay type: functional, cell-based
# [35] = tested on: Human immunodeficiency virus 1; assay: Antiviral activity against HIV1 NDK infected in U87.CD4 cells expressing human wild type CXCR4; assay type: functional, organism-based; details: Human immunodeficiency virus 1, NDK
# [36] = tested on: Human immunodeficiency virus 1; assay: Antiviral activity against HIV1 clinical isolate 10 infected in U87.CD4 cells expressing human wild type CXCR4; assay type: functional, organism-based; details: Human immunodeficiency virus 1, U87.CD4
# [37] = tested on: Human immunodeficiency virus 1; assay: Antiviral activity against HIV1 NL43 infected in U87.CD4 cells expressing human CXCR4 D262N mutant; assay type: functional, organism-based; details: Human immunodeficiency virus 1, NL43, U87.CD4
# [38] = tested on: Human immunodeficiency virus 1; assay: Antiviral activity against HIV1 clinical isolate 10 infected in U87.CD4 cells expressing human CXCR4 D262N mutant; assay type: functional, organism-based; details: Human immunodeficiency virus 1, U87.CD4
# [39] = tested on: Human immunodeficiency virus 1; assay: Antiviral activity against HIV1 NDK infected in U87.CD4 cells expressing human CXCR4 H281A mutant; assay type: functional, organism-based; details: Human immunodeficiency virus 1, NDK
# [40] = tested on: Human immunodeficiency virus 1; assay: Antiviral activity against HIV1 clinical isolate 10 infected U87.CD4 cells expressing human CXCR4 E288A mutant; assay type: functional, organism-based; details: Human immunodeficiency virus 1, U87.CD4
# T1 sequence (P61073 whole entry I284A, the tested form may be a part): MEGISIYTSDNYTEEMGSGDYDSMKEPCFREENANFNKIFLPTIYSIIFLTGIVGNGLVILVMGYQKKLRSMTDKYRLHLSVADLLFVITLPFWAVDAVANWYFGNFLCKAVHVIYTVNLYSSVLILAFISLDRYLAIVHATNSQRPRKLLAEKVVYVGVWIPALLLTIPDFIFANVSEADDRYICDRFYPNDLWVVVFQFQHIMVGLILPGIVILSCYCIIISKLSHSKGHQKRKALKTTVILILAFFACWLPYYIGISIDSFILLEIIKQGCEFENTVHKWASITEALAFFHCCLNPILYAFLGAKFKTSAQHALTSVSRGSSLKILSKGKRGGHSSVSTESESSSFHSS
# C-X-C chemokine receptor type 4 (Homo sapiens), P61073 [I284A], sequence (P61073 whole entry I284A, the tested form may be a part): as above
# C-X-C chemokine receptor type 4 (Homo sapiens), P61073 [H281A], sequence (P61073 whole entry H281A): as the sequence (P61073 whole entry I284A, the tested form may be a part) above, with H281A, A284I counted along it
# C-X-C chemokine receptor type 4 (Homo sapiens, UniProt P61073), sequence (P61073 whole entry): as the sequence (P61073 whole entry I284A, the tested form may be a part) above, with A284I counted along it
# C-X-C chemokine receptor type 4 (Homo sapiens), P61073 [F172A], sequence (P61073 whole entry F172A, the tested form may be a part): as the sequence (P61073 whole entry I284A, the tested form may be a part) above, with F172A, A284I counted along it
# C-X-C chemokine receptor type 4 (Homo sapiens, UniProt P61073, F172A), sequence (P61073 whole entry F172A): as the sequence (P61073 whole entry I284A, the tested form may be a part) above, with F172A, A284I counted along it
# C-X-C chemokine receptor type 4 (Homo sapiens, UniProt P61073, I259W), sequence (P61073 whole entry I259W, the tested form may be a part): as the sequence (P61073 whole entry I284A, the tested form may be a part) above, with I259W, A284I counted along it
# C-X-C chemokine receptor type 4 (Homo sapiens), P61073 [I259W], sequence (P61073 whole entry I259W, the tested form may be a part): as the sequence (P61073 whole entry I284A, the tested form may be a part) above, with I259W, A284I counted along it
# C-X-C chemokine receptor type 4 (Homo sapiens), P61073 [V196A], sequence (P61073 whole entry V196A, the tested form may be a part): as the sequence (P61073 whole entry I284A, the tested form may be a part) above, with V196A, A284I counted along it
# C-X-C chemokine receptor type 4 (Homo sapiens, UniProt P61073, V196A), sequence (P61073 whole entry V196A, the tested form may be a part): as the sequence (P61073 whole entry I284A, the tested form may be a part) above, with V196A, A284I counted along it
# C-X-C chemokine receptor type 4 (Homo sapiens), P61073 [D171N], sequence (P61073 whole entry D171N): as the sequence (P61073 whole entry I284A, the tested form may be a part) above, with D171N, A284I counted along it
# C-X-C chemokine receptor type 4 (Homo sapiens, UniProt P61073, D171N), sequence (P61073 whole entry D171N): as the sequence (P61073 whole entry I284A, the tested form may be a part) above, with D171N, A284I counted along it
# C-X-C chemokine receptor type 4 (Homo sapiens, UniProt P61073, D182A), sequence (P61073 whole entry D182A, the tested form may be a part): as the sequence (P61073 whole entry I284A, the tested form may be a part) above, with D182A, A284I counted along it
compound,measurement,setting,value
c1ccc(CNCc2ccc(CN3CCCNCCNCCCNCC3)cc2)nc1,IC50,[1],4.04 µM
same,logKi,[2],-5.6
same,Ki,[3],2500 nM
same,logKi,[4],-6.25
same,Ki,[5],560 nM
same,logKi,[6],-6.98
same,Ki,[7],100 nM
same,logKi,[8],-7.44
same,Ki,[9],40 nM
same,logKi,[10],-5.74
same,Ki,[11],1800 nM
same,logKi,[12],-6.81
same,Ki,[13],160 nM
same,logKi,[14],-6.35
same,Ki,[15],450 nM
same,logKi,[16],-3.22
same,Ki,[17],600 µM
same,logKi,[18],-4.34
same,Ki,[19],46 µM
same,logKi,[20],-4.75
same,Ki,[21],18 µM
same,logKi,[22],-4.94
same,Ki,[23],11 µM
same,Ki,[24],10 nM
same,logIC50,[24]; COS-7,-8.01
same,logIC50,[25],-6.76
same,Ki,[26],180 nM
same,logIC50,[27],-6.84
same,logIC50,[28],-7.43
same,Ki,[29],40 nM
same,logIC50,[30],-5.8
same,Ki,[31],1600 nM
same,logIC50,[32],-7.5
same,Ki,[33],30 nM
same,Activity,[34],inactive
same,IC50,[35],2700 nM
same,IC50,[36],4.7 µM
same,IC50,[37],38 nM
same,IC50,[38],3.83 µM
same,IC50,[39],37 nM
same,IC50,[40],1570 nM
